Measured values: publication PMC9412534, “Diindolylmethane Derivatives: New Selective Blockers for T-Type Calcium Channels” (Membranes, 2022)

How the values were obtained:
MCF-7 cells = experiment: Cell viability MTT assay, MCF-7; format: cell-based, human; conditions: Homo sapiens, 72 h treatment; for viability at 50 µM: MCF7, 50 µM, n = 4
Experimental: (§1) Human breast cancer cell line MCF-7 and T-47D, lung cancer cell line A549, and colon cancer cell line HT-29 were cultured under 5% carbon dioxide at 37 °C in DMEM Glutamax (Gibco, Life Technologies) supplemented with 10% (v/v) FBS. They were split in a ratio of 1:3–1:6 (ideally 2–4 × 10,000 cells/cm^2) when they reached 70–80% confluence using 0.25% Trypsin-EDTA. For cell viability MTT assay, cells were seeded into 96-well clear bottom culture plates (Corning, Lowell, MA, USA) at a density of 5 × 10^3 cells/well and settled at 37 °C for 24 h.
(§2) Seeded cells were treated with various concentrations of compounds for desired time period (24, 48 and 72 h). After the treatments, the media were removed from each well, and replaced with 25 μL of serum-free media and 25 μL of MTT Reagent (cat. no., ab211091; Abcam, Cambridge, MA, USA). The plate was then incubated at 37 °C for 3 h, and 75 μL of MTT Solvent (cat. no., ab211091; Abcam) was added into each well after incubation. The absorbance was evaluated at 590 nm. Cell-wells treated with 0.1% DMSO were used as positive control and no cell-wells were used as background control.

human CaV3.1 = target: T1, human CaV3.1 (Homo sapiens, UniProt O43497); experiment: T-type calcium channel window current FLIPR assay, CaV3.1; format: cell-based; conditions: n = 3, read-out: IC50 CaV3.1 (LVA CaVs)
T1 construct: expressed in transfected cells; host or cells: HEK 293 T cells, transient transfection (FuGENE HD)
Experimental: (§3) The human embryonic kidney 293 (HEK 293) cell lines (from Emmanuel Bourinet, Montpellier, France) stably expressing CaV3.2 or CaV3.3 were cultured under 5% carbon dioxide at 37 °C in Dulbecco’s Modified Eagle Medium (DMEM) Glutamax (Gibco, Life Technologies, Carlsbad, CA, USA) supplemented with 10% (v/v) fetal bovine serum (FBS), 100 U/mL penicillin, 100 μg/mL streptomycin (Gibco, Life Technologies, Carlsbad, CA, USA), and 750 μg/mL geneticin (G418) (Gibco, Life Technologies). The Chinese Hamster Ovary (CHO) cell lines (Emmanuel Bourinet, Montpellier, France) expressing CaV3.1 were cultured under 5% carbon dioxide at 37 °C in Alpha Minimum Essential Media (MEM) Glutamax (Gibco, Life Technologies), supplemented with 10% (v/v) fetal bovine serum (FBS) and 300 μg/mL geneticin (G418) (Gibco, Life Technologies). The human neuroblastoma SH-SY5Y cells (Victor Diaz, Goettingen, Germany) were cultured under 5% carbon dioxide at 37 °C in RPMI 1640 antibiotic-free medium (Invitrogen, Carlsbad, CA, USA), supplemented with 15% FBS and 2 mM GlutaMAX™ (Invitrogen). D-PBS (Gibco, Life Technologies) was used to wash the cells, and 0.25% Trypsin-EDTA (Gibco, Life Technologies) was used to detach cells from the flask surface. They were split in a ratio of 1:5 (ideally 1000 cells/cm^2) when they reached 70–80% confluence (every 2–3 days). Transiently transfected CaV3.1 HEK293 T cells were used in FLIPR Assays. HEK 293 T cells were cultured under 5% carbon dioxide at 37 °C in DMEM supplemented with 10% (v/v) FBS. D-PBS was used to wash the cells, and 0.25% Trypsin-EDTA was used to detach cells from the flask surface. The cells were split and seeded at 6 million cells per T175 flask, to reach 70–80% confluence after 24 h. The next day, 12 μg DNA of human CaV3.1 was incubated in 900 μL serum-free DMEM with 36 μL FuGENE HD transfection reagent (Promega Corporation, Madison, WI, USA) (1:3 DNA/Fugene ratio) for 20 min, and then the mixture was added into the cell flask slowly, drop by drop. After the transfection, the cells were cultured under 5% carbon dioxide at 37 °C for 24 h and then moved to a 28 °C incubator.
(§4) HEK 293 cells stably expressing CaV3.2 or CaV3.3 were seeded into 384-well black wall clear bottom plates (Corning) at a density of 30,000 cells per well. Transiently transfected CaV3.1HEK293 T cells were seeded into 384-well black wall clear bottom plates at a density of 60,000 cells per well. Once the cells reached 90–95% confluence after 24 h, the media were removed from the wells and replaced with 20 μL of 10% calcium 4 dye (Molecular Devices, Sunnyvale, CA, USA) in HBSS-HEPES (containing 5 mM KCl, 10 mM HEPES, 140 mM NaCl, 10 mM glucose, and 0.5 mM CaCl2, pH 7.4) with 0.1% bovine serum albumin (BSA). The cells were incubated for 30 min at 37 °C in the presence of 5% carbon dioxide. Each well on the reagent plates for the first addition contained 15 μL different concentrations of compounds dissolved in HBSS-HEPES containing 0.1% BSA and <0.5% DMSO and was incubated for 20 min after loaded. Positive and negative controls contained 15 μL of HBSS-HEPES (0.1% BSA) alone. The plates were placed in the FLIPR^TETRA (Molecular Devices, Sunnyvale, CA, USA) programmed to measure maximum fluorescence intensity following a second addition of the agonist 5 mM CaCl2. The fluorescence readings were recorded and converted as described previously, and HBSS-HEPES (0.1% BSA) was used in the second addition as a negative control.

HT-29 cells = experiment: Cell viability MTT assay, HT-29; format: cell-based, human; conditions: for viability at 50 µM: HT-29, 50 µM, n = 4; for preferential anti-proliferative activity on HT-29: versus MCF-7, T-47D, A549
Experimental: as §1, §2

T-47D cells = experiment: Cell viability MTT assay, T-47D; format: cell-based, human; conditions: Homo sapiens, T47D, 72 h treatment; for viability at 50 µM: n = 4
Experimental: as §1, §2

CaV3.2 = CaV3.2 (Homo sapiens, UniProt O95180); experiment: T-type calcium channel window current FLIPR assay, CaV3.2; format: cell-based; conditions: FLIPR window current, n = 3; read-out: IC50 CaV3.2 (LVA CaVs)
Chain of CaV3.2 (O95180 whole entry): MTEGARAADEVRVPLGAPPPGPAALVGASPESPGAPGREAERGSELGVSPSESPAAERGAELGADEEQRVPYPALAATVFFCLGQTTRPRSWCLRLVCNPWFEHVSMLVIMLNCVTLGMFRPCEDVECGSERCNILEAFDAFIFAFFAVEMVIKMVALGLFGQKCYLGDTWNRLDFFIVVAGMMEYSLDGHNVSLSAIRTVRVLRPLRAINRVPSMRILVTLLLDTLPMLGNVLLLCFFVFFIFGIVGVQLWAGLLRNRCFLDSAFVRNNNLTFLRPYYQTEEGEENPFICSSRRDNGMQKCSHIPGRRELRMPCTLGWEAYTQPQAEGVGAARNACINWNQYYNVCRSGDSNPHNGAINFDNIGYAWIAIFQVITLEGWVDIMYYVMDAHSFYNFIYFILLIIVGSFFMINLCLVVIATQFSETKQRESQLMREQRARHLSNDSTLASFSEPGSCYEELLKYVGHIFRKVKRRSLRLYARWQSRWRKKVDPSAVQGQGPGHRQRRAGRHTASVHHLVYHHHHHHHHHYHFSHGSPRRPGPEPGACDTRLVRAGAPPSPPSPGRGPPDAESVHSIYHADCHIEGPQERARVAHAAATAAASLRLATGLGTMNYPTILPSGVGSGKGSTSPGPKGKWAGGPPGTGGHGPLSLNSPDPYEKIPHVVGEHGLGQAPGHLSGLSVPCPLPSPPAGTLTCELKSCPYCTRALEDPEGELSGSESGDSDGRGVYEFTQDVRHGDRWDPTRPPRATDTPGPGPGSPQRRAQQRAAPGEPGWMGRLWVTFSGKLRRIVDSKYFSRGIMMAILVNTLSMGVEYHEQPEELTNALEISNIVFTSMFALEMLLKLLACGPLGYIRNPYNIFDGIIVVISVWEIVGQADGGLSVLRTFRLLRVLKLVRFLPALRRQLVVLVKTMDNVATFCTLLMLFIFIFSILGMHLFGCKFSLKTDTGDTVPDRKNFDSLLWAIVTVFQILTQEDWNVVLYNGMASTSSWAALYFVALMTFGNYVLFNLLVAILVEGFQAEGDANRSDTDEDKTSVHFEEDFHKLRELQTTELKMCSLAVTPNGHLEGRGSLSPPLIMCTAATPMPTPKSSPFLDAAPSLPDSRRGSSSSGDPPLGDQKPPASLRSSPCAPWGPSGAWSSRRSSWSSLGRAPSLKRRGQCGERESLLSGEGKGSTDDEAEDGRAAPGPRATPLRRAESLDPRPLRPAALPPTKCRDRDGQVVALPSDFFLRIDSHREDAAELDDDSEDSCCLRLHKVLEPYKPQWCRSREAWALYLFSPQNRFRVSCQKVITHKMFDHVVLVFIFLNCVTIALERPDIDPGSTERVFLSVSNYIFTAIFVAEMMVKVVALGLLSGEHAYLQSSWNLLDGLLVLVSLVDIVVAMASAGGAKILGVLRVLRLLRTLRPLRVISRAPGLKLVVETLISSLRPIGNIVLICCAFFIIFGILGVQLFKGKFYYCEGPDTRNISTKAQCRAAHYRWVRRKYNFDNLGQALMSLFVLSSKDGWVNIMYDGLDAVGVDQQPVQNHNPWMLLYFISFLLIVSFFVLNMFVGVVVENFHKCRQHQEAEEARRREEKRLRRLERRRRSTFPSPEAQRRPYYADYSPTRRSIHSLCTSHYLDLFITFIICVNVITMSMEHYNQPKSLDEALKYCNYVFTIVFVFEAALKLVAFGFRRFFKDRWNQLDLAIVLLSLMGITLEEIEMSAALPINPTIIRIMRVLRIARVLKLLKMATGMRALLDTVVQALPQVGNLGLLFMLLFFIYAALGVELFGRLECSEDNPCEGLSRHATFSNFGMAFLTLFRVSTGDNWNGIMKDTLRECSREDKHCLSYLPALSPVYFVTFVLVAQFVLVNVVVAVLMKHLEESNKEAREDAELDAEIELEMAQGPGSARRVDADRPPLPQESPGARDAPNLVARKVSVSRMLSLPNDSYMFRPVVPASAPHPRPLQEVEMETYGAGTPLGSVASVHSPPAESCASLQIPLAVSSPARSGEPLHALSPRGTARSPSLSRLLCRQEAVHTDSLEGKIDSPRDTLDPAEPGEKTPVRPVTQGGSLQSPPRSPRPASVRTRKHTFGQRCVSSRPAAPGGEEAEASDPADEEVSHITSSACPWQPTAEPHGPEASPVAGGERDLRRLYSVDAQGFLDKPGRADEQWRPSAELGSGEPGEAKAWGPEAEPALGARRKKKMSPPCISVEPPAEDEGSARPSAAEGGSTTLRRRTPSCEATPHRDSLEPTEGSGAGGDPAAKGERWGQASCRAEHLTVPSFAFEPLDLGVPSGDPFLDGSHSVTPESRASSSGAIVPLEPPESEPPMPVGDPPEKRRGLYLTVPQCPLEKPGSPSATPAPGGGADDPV
Experimental: as §3, §4

CaV3.3 = CaV3.3 (Homo sapiens, UniProt Q9P0X4); experiment: T-type calcium channel window current FLIPR assay, CaV3.3; format: cell-based; conditions: FLIPR window current; for IC50: n = 3, read-out: IC50 CaV3.3 (LVA CaVs)
Chain of CaV3.3 (Q9P0X4 whole entry): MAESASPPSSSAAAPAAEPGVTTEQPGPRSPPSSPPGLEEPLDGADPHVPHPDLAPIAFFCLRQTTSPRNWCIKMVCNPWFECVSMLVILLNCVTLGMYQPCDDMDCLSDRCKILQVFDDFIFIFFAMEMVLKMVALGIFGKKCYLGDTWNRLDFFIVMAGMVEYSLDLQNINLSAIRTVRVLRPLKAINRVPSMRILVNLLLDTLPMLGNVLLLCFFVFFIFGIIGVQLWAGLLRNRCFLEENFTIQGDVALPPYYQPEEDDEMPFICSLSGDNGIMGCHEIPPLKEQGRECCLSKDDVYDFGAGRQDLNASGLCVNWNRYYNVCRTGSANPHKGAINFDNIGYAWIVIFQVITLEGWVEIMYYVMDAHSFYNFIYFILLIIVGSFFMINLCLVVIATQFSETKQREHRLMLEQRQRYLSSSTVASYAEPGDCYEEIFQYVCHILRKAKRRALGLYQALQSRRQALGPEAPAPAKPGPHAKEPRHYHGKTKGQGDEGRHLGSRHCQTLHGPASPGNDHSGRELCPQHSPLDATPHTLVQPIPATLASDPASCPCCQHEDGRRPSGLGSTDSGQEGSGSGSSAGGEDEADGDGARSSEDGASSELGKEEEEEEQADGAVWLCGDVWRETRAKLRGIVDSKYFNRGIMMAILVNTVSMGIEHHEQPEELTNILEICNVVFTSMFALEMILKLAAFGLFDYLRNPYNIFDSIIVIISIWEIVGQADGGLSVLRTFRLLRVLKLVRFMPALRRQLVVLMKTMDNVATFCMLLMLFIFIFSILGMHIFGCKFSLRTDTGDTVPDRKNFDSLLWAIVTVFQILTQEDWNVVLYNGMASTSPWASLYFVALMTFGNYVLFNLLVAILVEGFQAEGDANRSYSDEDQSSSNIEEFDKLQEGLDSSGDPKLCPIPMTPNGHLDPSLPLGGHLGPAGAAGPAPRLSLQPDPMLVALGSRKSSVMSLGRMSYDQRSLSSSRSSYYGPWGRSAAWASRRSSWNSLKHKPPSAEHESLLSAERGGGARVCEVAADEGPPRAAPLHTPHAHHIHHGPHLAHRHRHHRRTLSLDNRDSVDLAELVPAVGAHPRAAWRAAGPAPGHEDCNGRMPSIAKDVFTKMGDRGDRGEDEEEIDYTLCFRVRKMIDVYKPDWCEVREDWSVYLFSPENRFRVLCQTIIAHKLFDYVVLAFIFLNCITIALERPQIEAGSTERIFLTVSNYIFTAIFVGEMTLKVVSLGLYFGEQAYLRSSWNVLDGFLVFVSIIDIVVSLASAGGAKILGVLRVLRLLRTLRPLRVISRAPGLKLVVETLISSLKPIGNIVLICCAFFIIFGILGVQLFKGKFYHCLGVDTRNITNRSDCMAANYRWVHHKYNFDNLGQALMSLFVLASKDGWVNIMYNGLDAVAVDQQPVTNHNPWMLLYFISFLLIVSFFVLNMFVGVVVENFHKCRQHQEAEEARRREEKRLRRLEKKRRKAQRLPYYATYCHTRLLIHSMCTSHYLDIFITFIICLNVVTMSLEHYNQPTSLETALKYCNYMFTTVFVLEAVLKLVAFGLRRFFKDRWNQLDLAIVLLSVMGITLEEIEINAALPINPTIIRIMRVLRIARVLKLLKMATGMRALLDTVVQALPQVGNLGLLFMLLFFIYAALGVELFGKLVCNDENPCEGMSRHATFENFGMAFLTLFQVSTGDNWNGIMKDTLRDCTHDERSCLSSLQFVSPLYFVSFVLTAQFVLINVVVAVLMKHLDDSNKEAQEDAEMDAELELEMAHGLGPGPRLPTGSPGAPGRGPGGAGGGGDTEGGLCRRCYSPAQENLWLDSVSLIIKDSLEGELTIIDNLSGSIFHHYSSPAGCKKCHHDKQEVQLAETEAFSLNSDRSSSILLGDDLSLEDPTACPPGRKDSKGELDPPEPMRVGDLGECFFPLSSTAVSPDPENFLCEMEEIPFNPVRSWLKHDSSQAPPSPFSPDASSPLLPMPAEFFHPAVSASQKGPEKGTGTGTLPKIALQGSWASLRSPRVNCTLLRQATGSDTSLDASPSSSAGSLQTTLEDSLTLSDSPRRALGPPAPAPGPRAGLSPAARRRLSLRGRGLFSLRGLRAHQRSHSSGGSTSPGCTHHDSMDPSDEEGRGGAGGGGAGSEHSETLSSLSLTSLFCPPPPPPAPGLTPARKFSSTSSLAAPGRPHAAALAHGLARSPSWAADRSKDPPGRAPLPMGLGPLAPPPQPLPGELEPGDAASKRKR
Experimental: as §3, §4

A549 cells = experiment: Cell viability MTT assay, A549; format: cell-based, human; conditions: for viability at 50 µM: A549, 50 µM, n = 4
Experimental: as §1, §2

CaV2.2 = target: T2, CaV2.2 (Homo sapiens, UniProt Q00975); experiment: HVA N-type calcium channel FLIPR assay in SH-SY5Y cells; format: cell-based; conditions: 10 µM nifedipine present, n = 3, read-out: IC50 CaV2.2 (HVA CaVs)
T2 construct: endogenous in cells; host or cells: SH-SY5Y human neuroblastoma cells
Experimental: as §3
(§5) SH-SY5Y cells were seeded into 384-well black wall clear bottom plates at a density of 15,000 cells per well, resulting in 90–95% confluence after 24 h. The media were then removed from the wells and replaced with 20 μL of 10% calcium 4 dye (Molecular Devices) in physiological salt solution (PSS) (containing 5.9 mM KCl, 1.4 mM MgCl2, 10 mM HEPES, 1.2 mM NaH2 PO4, 5 mM NaHCO3, 140 mM NaCl, 11.5 mM glucose, and 1.8 mM CaCl2, pH 7.4) with 0.1% BSA. As reported, for N-type calcium channel FLIPR assays the cells were pre-incubated with 10 µM nifedipine added in the dye to ensure full inhibition of L-type calcium responses. For L-type calcium channel FLIPR assays, the cells were pre-incubated with 1 µM CVID added in the dye to ensure full inhibition of N-type calcium responses. Positive control on the first reagent plate contained 15 μL of PSS (0.1% BSA), whereas PSS (0.1% BSA) containing 1 µM CVID and 10 µM nifedipine (final concentration) was used as a negative control. The fluorescence readings were recorded and converted as described previously, and agonist containing 90 mM KCl + 5 mM CaCl2 was used in the second addition.

CaV1 = experiment: HVA L-type calcium channel FLIPR assay in SH-SY5Y cells; format: cell-based, human; conditions: 1 µM CVID present, n = 3, read-out: IC50 CaV1 (HVA CaVs)
Experimental: as §3, §5

[1] = system: voltage-gated calcium channels (VGCC); experiment: VGCC FLIPR cell-based assays, all channels (overall observation); parameters: species or system human
Experimental: as §4, §5

[2] = Solubility in assay buffer with 0.1% BSA; format: physicochemical

| Structure (SMILES) | IC50 (human CaV3.1) [µM] | IC50 (CaV3.2) [µM] | inhibition against CaV3.3 (CaV3.3) | IC50 (CaV3.3) [µM] | IC50 (CaV2.2) [µM] | IC50 (CaV1) [µM] | IC50 (MCF-7 cells; MCF7, 72 h, n = 3) [µM] | IC50 (HT-29 cells; Homo sapiens, HT-29, 72 h, 72 h treatment, n = 3) [µM] | IC50 (T-47D cells; 72 h, n = 3) [µM] | IC50 (A549 cells; Homo sapiens, A549, 72 h, 72 h treatment, n = 3) [µM] | solubility in buffer [2] | viability at 50 µM (MCF-7 cells) [%] | viability at 50 µM (HT-29 cells; Homo sapiens, 72 h treatment) [%] | preferential anti-proliferative activity on HT-29 (HT-29 cells) | viability at 50 µM (T-47D cells) [%] | effect on A549 cell proliferation (A549 cells; 50 µM, 72 h) | viability at 50 µM (A549 cells; Homo sapiens, 72 h treatment) [%] | inhibition of all the Ca2+ responses [1] | better antiproliferative effect on HT-29 cell viability than on the other three cancer cell lines (HT-29 cells; 72 h treatment) [fold] |
| --- | --- | --- | --- | --- | --- | --- | --- | --- | --- | --- | --- | --- | --- | --- | --- | --- | --- | --- | --- |
| CCOC(=O)C(=O)c1c[nH]c2ccccc12 [VI] | 154 ± 18.1 | > 200 | – | > 200 | 53.8 ± 2.43 | > 200 | – | – | – | – | – | – | – | – | – | – | – | poor inhibition | – |
| O=C(c1c[nH]c2cc(Br)ccc12)c1cn(S(=O)(=O)O)c2cc(Br)ccc12 [V] | 92.1 ± 4.69 | 67.5 ± 6.05 | – | 92.6 ± 1.46 | 90.2 ± 4.93 | 88.2 ± 7.95 | 51 | 15 | 38 | 27 | – | 29.52 ± 0.19 | 0.93 ± 0.06 | preferential anti-proliferative activity | 31.4 ± 0.43 | – | 14.1 ± 0.15 | poor inhibition | ≥ 2 |
| O=C(c1cn(S(=O)(=O)O)c2ccccc12)c1cn(S(=O)(=O)O)c2ccccc12 [XI, 3,3'-carbonylbis(1H-indole-1-sulfonic acid)] | – | – | – | – | – | – | – | – | – | – | highly insoluble | – | – | – | – | – | – | – | – |
| Cc1ccc(S(=O)(=O)n2cc(C(=O)c3cn(S(=O)(=O)c4ccc(C)cc4)c4ccccc34)c3ccccc32)cc1 [X] | 53.4 ± 0.93 | 99.9 ± 3.56 | – | 78.3 ± 4.79 | 54.5 ± 1.84 | 47.9 ± 1.37 | – | – | – | – | – | – | – | – | – | – | – | poor inhibition | – |

Further lines, with some results ahead:

| IC50 (human CaV3.1) [µM] | IC50 (CaV3.2) [µM] | inhibition against CaV3.3 (CaV3.3) | IC50 (CaV3.3) [µM] | IC50 (CaV2.2) [µM] | IC50 (CaV1) [µM] | IC50 (MCF-7 cells; MCF7, 72 h, n = 3) [µM] | IC50 (HT-29 cells; Homo sapiens, HT-29, 72 h, 72 h treatment, n = 3) [µM] | IC50 (T-47D cells; 72 h, n = 3) [µM] | IC50 (A549 cells; Homo sapiens, A549, 72 h, 72 h treatment, n = 3) [µM] | solubility in buffer [2] | Structure (SMILES) | viability at 50 µM (MCF-7 cells) [%] | viability at 50 µM (HT-29 cells; Homo sapiens, 72 h treatment) [%] | preferential anti-proliferative activity on HT-29 (HT-29 cells) | viability at 50 µM (T-47D cells) [%] | effect on A549 cell proliferation (A549 cells; 50 µM, 72 h) | viability at 50 µM (A549 cells; Homo sapiens, 72 h treatment) [%] | inhibition of all the Ca2+ responses [1] | better antiproliferative effect on HT-29 cell viability than on the other three cancer cell lines (HT-29 cells; 72 h treatment) [fold] |
| --- | --- | --- | --- | --- | --- | --- | --- | --- | --- | --- | --- | --- | --- | --- | --- | --- | --- | --- | --- |
| 58.8 ± 6.85 | 106 ± 11.8 | moderate inhibition | 17.8 ± 4.64 | 60.9 ± 3.37 | 192 ± 30.5 | – | – | – | – | – | O=C(c1c[nH]c2ccccc12)c1cn(S(=O)(=O)O)c2ccccc12 [III] | 84.9 ± 5.75 | 21.6 ± 1.1 | preferential anti-proliferative activity | 79.7 ± 3.74 | promoted A549 cell proliferation | 211 ± 4.69 | – | – |
| 43.5 ± 3.72 | 17.1 ± 1.87 | – | 13.8 ± 2.02 | 32.1 ± 3.01 | 32.1 ± 0.84 | – | – | – | – | – | CCOC(=O)C(=O)c1cn(S(=O)(=O)c2ccc(C)cc2)c2ccccc12 [VII] | – | – | – | – | – | – | – | – |
